Data published in ChEMBL document CHEMBL3137667, “[Drug-induced liver injury; fourteenth updated edition of the bibliographic database of liver injuries and related drugs]” (Gastroenterol Clin Biol, 2004).

Experiments:
[1] = Times to onset, minimal and maximal, observed in the indexed observations. [column 'DELAI' in source]; conditions: human
[2] = human
[3] = human, serum, 4383 h
[4] = Proposed mechanism(s) of liver damage. [column 'MEC' in source]; conditions: human
[5] = human; remark: listed apart in the source
[6] = human; remark: listed apart in the source
[7] = human; remark: listed apart in the source
[8] = human; remark: listed apart in the source
[9] = human; remark: listed apart in the source
[10] = Comments (NB not yet translated). [column 'COMMENTAIRES' in source]; conditions: human
[11] = human; remark: listed apart in the source
[12] = Highest frequency of moderate liver toxicity observed during clinical trials, expressed as a percentage. [column '% BIOL' in source]; conditions: human
[13] = human; remark: listed apart in the source
[14] = human, serum
[15] = human; remark: listed apart in the source
[16] = human, serum; remark: listed apart in the source
[17] = Highest frequency of acute liver toxicity observed during clinical trials, expressed as a percentage. [column '% AIGUE' in source]; conditions: human
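Throughout, for Hepatotoxicity (association with vascular disease): count of indexed literature references reporting vascular liver injury in humans, e.g. peliosis hepatitis, hepatic veno-occlusive disease or Budd-Chiari syndrome.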
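Throughout, for Hepatotoxicity (benign tumour): value is a count of indexed literature references citing a benign tumour confirmed by histopathology.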
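Throughout, for Hepatotoxicity (choleostasis): human cholestatic liver injury, shown by histopathology or by peak ALT or AST elevation over alkaline phosphatase ratio below 2, value counts indexed literature reports.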
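Throughout, for Hepatotoxicity (chronic liver disease): chronic liver injury confirmed by histopathology or persistently raised serum aminotransferase activity beyond 6 months, value given as the count of indexed literature references.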
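Throughout, for Hepatotoxicity (cirrhosis): value is a count of indexed literature references reporting cirrhosis confirmed by histopathology.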
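Throughout, for Hepatotoxicity (cytolytic): human cytolytic liver injury, shown by histopathology or by a ratio above 5 of peak ALT or AST elevation to alkaline phosphatase elevation, value counts indexed references.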
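Throughout, for Hepatotoxicity (granulomatous hepatitis): value is a count of indexed literature references reporting granulomatous liver disease confirmed by histopathology.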
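Throughout, for Hepatotoxicity (malignant tumour): malignant tumour confirmed by histopathology, value gives the count of indexed literature references reporting it.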
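Throughout, for Hepatotoxicity (severe hepatitis): human clinical data: severe hepatitis, meaning potentially life-threatening liver failure or clinically observed cases, the value counts how many indexed literature references report it.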
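Throughout, for Hepatotoxicity (steatosis): steatosis confirmed by histopathology, value is the count of indexed references.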

Row | Compound | Hepatotoxicity (time to onset) [1] | Hepatotoxicity (granulomatous hepatitis) [2] | Hepatotoxicity (chronic liver disease) [3] | Hepatotoxicity (mechanism) [4] | Hepatotoxicity (cirrhosis) [5] | Hepatotoxicity (cytolytic) [6] | Hepatotoxicity (severe hepatitis) ([7]; Liver) | Hepatotoxicity (malignant tumour) [8] | Hepatotoxicity (steatosis) [9] | Hepatotoxicity (comment) [10] | Hepatotoxicity (association with vascular disease) [11] | Hepatotoxicity (moderate) ([12]; Liver) | Hepatotoxicity (benign tumour) [13] | Hepatotoxicity (moderate) [14] | Hepatotoxicity (choleostasis) [15] | Hepatotoxicity (severe hepatitis) [7] | Hepatotoxicity (moderate) [12] | Hepatotoxicity (acute) [16] | Hepatotoxicity (acute) [17] | Hepatotoxicity (acute) ([17]; Liver)
1 | Cc1cnc(C(=O)NCCc2ccc(S(=O)(=O)NC(=O)NC3CCCCC3)cc2)cn1 [GLIPIZIDE] | 2 days - 5 months | 0 | 0 | Allergic | 0 | 3 | 2 | 0 | 0 | AC_ANTI-ML | 0 | 0% | 0 | 1 | 0 |  |  |  |  | 
2 | O=C(Nc1ccc(Cl)cc1)NS(=O)(=O)c1ccc2c(c1)CCC2 [SULOFENUR] |  | 0 | 0 | Dose-dependant | 0 | 4 |  | 0 | 0 | CHOLANGITE | 0 |  | 0 | 9 | 3 | 0 | 80% | 6 | 18.8% | 
3 | C[C@]12CC[C@H]3[C@@H](CCC4=CC(=O)CC[C@@]43C)[C@@H]1CC[C@@H]2O [TESTOSTERONE] | 3 months - 11 years | 0 | 0 |  | 0 | 0 |  | 2 | 0 | ANGIOSARCOME CHOLESTASE_PROLONGEE PELIOSE | 6 |  | 3 | 0 | 3 | 1 | 0% | 3 | 0% | 
4 | O=C1CCC(N2C(=O)c3ccccc3C2=O)C(=O)N1 (stereo not drawn) [THALIDOMIDE] | 5 days - 7 months | 0 | 0 |  | 0 | 2 |  | 0 | 0 | REACTIVATION_HVC | 0 |  | 0 | 3 | 0 | 0 | 5.6% | 2 | 0% | 
5 | CSc1ccc2c(c1)N(CCC1CCCCN1C)c1ccccc1S2 (stereo not drawn) [THIORIDAZINE] | 1 week - 1 year | 0 | 1 |  | 0 | 2 | 1 | 0 | 0 | RC/CHLORPROMAZINE | 0 | 0% | 0 | 2 | 5 |  |  | 5 |  | 0%
6 | Cc1cc(Br)c(O)c2ncccc12 [TILBROQUINOL] | 4 days | 1 | 0 |  | 0 | 0 |  | 0 | 0 | CHOLANGITE | 0 |  | 0 | 0 | 0 | 0 | 0% | 1 | 0% | 
7 | Cc1ccc(O)c2ncccc12 [TILIQUINOL] | 4 days | 1 | 0 |  | 0 | 0 |  | 0 | 0 | CHOLANGITE | 0 |  | 0 | 0 | 0 | 0 | 0% | 1 | 0% | 
8 | CN1CCN(CCCN2c3ccccc3Sc3ccc(C(F)(F)F)cc32)CC1 [TRIFLUOPERAZINE] | 2 weeks - 8 years | 0 | 0 |  | 1 | 0 |  | 0 | 0 | #CBP | 0 |  | 0 | 2 | 4 | 0 | 0% | 5 | 0% | 
9 | Nc1ncnc2c1ncn2[C@@H]1O[C@H](CO)[C@@H](O)[C@@H]1O [VIDARABINE] | 1 week | 0 | 0 |  | 0 | 0 |  | 0 | 0 | AGGRAVATION_HEPATITE_VIRALE | 0 |  | 0 | 5 | 0 | 1 | 17% | 0 | 0% | 
10 | ANISTREPLASE | 6 days | 0 | 0 |  | 0 | 1 |  | 0 | 0 | HEMATOME_SOUS_CAPSULAIRE | 0 |  | 0 | 0 | 0 | 0 | 0% | 1 | 0% | 
11 | ETANERCEPT | 4 weeks - 14 weeks | 0 | 0 |  | 0 | 0 |  | 0 | 0 | CHOLECYSTITE | 0 |  | 0 | 2 | 0 | 0 | 5% | 0 | 0% | 
12 | GONADOTROPIN, SERUM | 39 days - 6 months | 0 | 0 |  | 0 | 1 |  | 0 | 0 | HNF | 0 |  | 1 | 0 | 0 | 0 | 0% | 1 | 0% | 
13 | INFLIXIMAB | 19 days - 19 months | 0 | 0 |  | 0 | 4 |  | 0 | 0 | CHOLANGITE CHOLECYSTITE REACTIVATION_HVB | 0 |  | 0 | 3 | 2 | 2 | 31.3% | 8 | 0% | 
14 | RITUXIMAB | 2 months - 7 months | 0 | 0 |  | 0 | 4 |  | 0 | 0 | REACTIVATION_HVB | 0 |  | 0 | 1 | 0 | 3 | 5.6% | 4 | 0% | 
